Measurements as given in patent publication US20070128217A1 (priority 2003, published 2007).

Experiments:
[1] = test system: recombinant human anti-SARS-CoV antibody 03-018; format: binding; design: Binding of antibody 03-018 to linear peptides of the N protein of SARS-CoV Urbani / Binding of antibody 03-018 to looped/cyclic peptides of the N protein of SARS-CoV Urbani: unit not given here
[2] = test system: control sera (pooled serum of ten healthy LUMC hospital workers; commercial negative donor pooled serum from the Dutch bloodbank); format: binding, human; design: Binding of Control serum LUMC to linear peptides / Binding of Control serum Blood-bank to linear peptides / Binding of Control serum LUMC to looped peptides / Binding of Control Serum Blood-Bank to Looped peptides / Binding of Control serum LUMC to linear peptides of the protein M of SARS-CoV Urbani / Binding of Control serum Blood-bank to linear peptides of the protein M of SARS-CoV Urbani / Binding of Control serum LUMC to looped peptides of the protein M of SARS-CoV Urbani / Binding of Control Serum Blood-Bank to Looped peptides of the protein M of SARS-CoV Urbani: unit not given here
[3] = test system: rabbit serum obtained by immunizing a rabbit with the SARS-CoV strain Frankfurt 1; format: binding; design: Binding of a rabbit serum to linear peptides / Binding of a rabbit serum to looped peptides / Rabbit serum linear peptides / Rabbit serum looped peptides / Binding of a rabbit serum to linear peptides of protein N of SARS-CoV Urbani (Rabbit serum linear peptides) / Binding of a rabbit serum to looped/cyclic peptides of protein N of SARS-CoV Urbani (Rabbit serum looped peptides): unit not given here
[4] = test system: antibodies in sera from SARS patients (sera 1a, 1b, 2, 6, 37, 62, London, SARS-yellow, SARS-green); format: binding, human; design: Binding of serum 6 to linear peptides of protein X1 of SARS-CoV Urbani / Binding of serum 37 to linear peptides of protein X1 of SARS-CoV Urbani / Binding of serum 6 to looped/cyclic peptide (PEPSCAN-ELISA) / Binding of serum 37 to looped/cyclic peptide (PEPSCAN-ELISA) / Binding of serum 37 to looped/cyclic peptides of protein X1 of SARS-CoV Urbani / Binding of serum 6 to linear peptides of protein X2 / Binding of serum 37 to linear peptides of protein X2 / Binding of serum 37 to looped/cyclic peptides of protein X2 of SARS-CoV Urbani / Binding of serum 6 to linear peptides of protein M of SARS-CoV Urbani / Binding of serum 37 to linear peptides of protein M of SARS-CoV Urbani / Binding of serum 6 to looped/cyclic peptides of protein M of SARS-CoV Urbani / Binding of serum 37 to looped/cyclic peptides of protein M of SARS-CoV Urbani / Binding of serum 6 to linear peptides of protein X3 of SARS-CoV Urbani / Binding of serum 37 to linear peptides of protein X3 of SARS-CoV Urbani / Binding of serum 37 to looped/cyclic peptides of protein X3 of SARS-CoV Urbani / Binding of serum 6 to linear peptides of protein X4 of SARS-CoV Urbani / Binding of serum 37 to linear peptides of protein X4 of SARS-CoV Urbani / Binding of serum 37 to looped/cyclic peptides of protein X4 of SARS-CoV Urbani / Binding of serum 6 to linear peptides of protein X5 of SARS-CoV Urbani / Binding of serum 37 to linear peptides of protein X5 of SARS-CoV Urbani / Binding of serum 37 to looped/cyclic peptides of protein X5 of SARS-CoV Urbani / Binding of serum 6 to linear peptides of protein N of SARS-CoV Urbani / Binding of serum 37 to linear peptides of protein N of SARS-CoV Urbani / Binding of serum 6 to linear peptide (PEPSCAN-ELISA) / Binding of serum 1a to looped/cyclic peptides of protein N of SARS-CoV Urbani / Binding of serum 1b to looped/cyclic peptides of protein N of SARS-CoV Urbani / Binding of serum 2 to looped/cyclic peptides of protein N of SARS-CoV Urbani / Binding of serum 6 to looped/cyclic peptides of protein N of SARS-CoV Urbani / Binding of serum 37 to looped/cyclic peptides of protein N of SARS-CoV Urbani / Binding of serum 62 to looped/cyclic peptides of protein N of SARS-CoV Urbani / Binding of serum London to looped/cyclic peptides of protein N of SARS-CoV Urbani / Binding of serum SARS-green to looped/cyclic peptides of protein N of SARS-CoV Urbani: unit not given here

Row | Sequence | Binding of antibody 03-018 to linear peptides of the N protein of SARS-CoV Urbani [1] | Binding of antibody 03-018 to looped/cyclic peptides of the N protein of SARS-CoV Urbani [1] | Binding of Control Serum Blood-Bank to Looped peptides [2] | Binding of Control serum Blood-bank to linear peptides [2] | Binding of Control serum LUMC to linear peptides [2] | Binding of Control serum LUMC to looped peptides [2] | Binding of a rabbit serum to linear peptides of protein N of SARS-CoV Urbani (Rabbit serum linear peptides) [3] | Binding of a rabbit serum to looped/cyclic peptides of protein N of SARS-CoV Urbani (Rabbit serum looped peptides) [3] | Binding of serum 1a to linear peptide (PEPSCAN-ELISA) [4] | Binding of serum 1a to looped/cyclic peptides of protein N of SARS-CoV Urbani [4] | Binding of serum 1b to linear peptide (PEPSCAN-ELISA) [4] | Binding of serum 1b to looped/cyclic peptides of protein N of SARS-CoV Urbani [4] | Binding of serum 2 to linear peptide (PEPSCAN-ELISA) [4] | Binding of serum 2 to looped/cyclic peptides of protein N of SARS-CoV Urbani [4] | Binding of serum 6 to linear peptide (PEPSCAN-ELISA) [4] | Binding of serum 6 to looped/cyclic peptides of protein N of SARS-CoV Urbani [4] | Binding of serum 37 to linear peptide (PEPSCAN-ELISA) [4] | Binding of serum 37 to looped/cyclic peptides of protein N of SARS-CoV Urbani [4] | Binding of serum 62 to linear peptide (PEPSCAN-ELISA) [4] | Binding of serum 62 to looped/cyclic peptides of protein N of SARS-CoV Urbani [4] | other results
1 | SSRGNSPARMASGGG | 0.1 | 0.2 | 0.8 | 0.8 | 0.9 | 0.9 | 0.2 | 0.0 | 0.4 | 0.4 | 0.3 | 0.2 | 0.2 | 0.5 | 0.2 | 0.4 | 0.5 | 0.4 | 0.6 | 0.5 | Binding of serum London to linear peptide (PEPSCAN-ELISA) [4]: 0.5; Binding of serum London to looped/cyclic peptides of protein N of SARS-CoV Urbani [4]: 0.8; Binding of serum SARS-green to linear peptide (PEPSCAN-ELISA) [4]: 1.0; Binding of serum SARS-green to looped/cyclic peptides of protein N of SARS-CoV Urbani [4]: 0.6; Binding of serum SARS-yellow to linear peptide (PEPSCAN-ELISA) [4]: 0.7; Binding of serum SARS-yellow to looped/cyclic peptides of protein N of SARS-CoV Urbani [4]: 0.5
2 | SSRSRGNSRNSTPGS | 0.1 | 0.2 | 0.5 | 0.6 | 0.5 | 0.5 | 0.1 | 0.0 | 0.8 | 0.3 | 0.5 | 0.1 | 0.1 | 0.3 | 0.2 | 0.1 | 0.6 | 0.4 | 0.5 | 0.3 | Binding of serum London to linear peptide (PEPSCAN-ELISA) [4]: 0.4; Binding of serum London to looped/cyclic peptides of protein N of SARS-CoV Urbani [4]: 0.3; Binding of serum SARS-green to linear peptide (PEPSCAN-ELISA) [4]: 0.1; Binding of serum SARS-green to looped/cyclic peptides of protein N of SARS-CoV Urbani [4]: 0.0; Binding of serum SARS-yellow to linear peptide (PEPSCAN-ELISA) [4]: 0.5; Binding of serum SARS-yellow to looped/cyclic peptides of protein N of SARS-CoV Urbani [4]: 0.1
